Laboratory results from patent US10562922B2, “Silicon based cyclic compounds and pharmaceutical compositions for treating malaria and toxoplasmosis” (Council of Scientific and Industrial Research, priority 2016, dated 2020).
Values joined by “and” are separate entries in the source; they are usually repeats but may differ in a detail not shown here. Identical values can stand only once. Like-named read-outs stand apart in the source and are kept apart here.

Experiments:
[1] = tested on: T. gondii; assay: Anti-toxoplasma screening (TgLuc+ luciferase growth assay in HFF host cells); assay type: cell-based, Toxoplasma gondii
From the text: b) Anti-toxoplasma Screening:
For screening bioactivity of test molecules against T. gondii, a transgenic line of the parasite (TgLuc+) expressing the luciferase gene is used [Edwin Kamau, Tracy Meehan, Mark D. Lavine, Gustavo Arrizabalaga, Gabriela Mustata Wilson and Jon Boyle. A Novel Benzodioxole-Containing Inhibitor of Toxoplasmagondii Growth Alters the Parasite Cell Cycle. Antimicrob Agents Chemother. 2011, 55(12): 5438-5451]. The parental parasite used to generate the TgLuc+ strain is aType I (RH) virulent strain (ATCC reference 50174D), which can also be used for in vivo studies in mice, if needed. The tachyzoite stage of the parasites are routinely cultured in the laboratory using standard protocols [Roos D S, Donald R G, Morrissette N S, Moulton A L. Molecular tools for genetic dissection of the protozoan parasite Toxoplasma gondii. Methods Cell Biol. 1994, 45:27-63]. In brief, a confluent monolayer of Human Foreskin Fibroblast (HFF; ATCC reference SCRS-1041) cells in culture are used as the host cells for infection with tachyzoitestage T. gondii. The culture media used to grow parasites is standard complete DMEM (Gibco BRL, USA) containing glucose (5.5 mM), glutamine (2 mM), Hepes (25 mM) and 1% dialyzed bovine fetal calf serum (Gibco BRL, USA). For bioactivity assays, the HFF cells are grown in 96 well plates and each well is infected with 1×10^4TgLuc+parasitesin the presence of 10 μM test molecules (in primary screens) in a total volume of 200 μL. After 2 days of incubation and growth in a 37° C. incubator maintaining 5% CO2, the 96 well plates are processed for luminescence measurements using the reagents in the luciferase assay kit (Promega, USA). The results are corrected for background (uninfected HFF cultures), and normalized against both positive (untreated parasite cultures) and negative (standard drug treated parasite cultures) to identify those molecules with % inhibition values >80% for further dose analysis and IC50 determination using a dilution series ranging from 10 μM to 1 nM. Data from the preliminary screen (@ 10 μM only) is shown in Table-1 and dose response experiments are underway.

[2] = tested on: Plasmodium falciparum (3D7); assay: Anti-malarial screening (SybrGreen parasite growth assay); assay type: cell-based; details: for inhibition at 10 µM: read-out: % inhibition (P. falciparum)
Experimental: a) Anti-malarial Screening:
Plasmodium falciparum (3D7; Malaria Research and Reference Reagent Resource Center ID NO: MRA-102) is cultured in the laboratory as per standard protocols [Moll K., Ljungström I., Perlmann H., Scherf A., and Wahlgren M., (Editors). Methods in Malaria Research. Joint publication by Malaria Research and Reference Reagent Resource Center (MR4), ATCC, USA and BioMalPar, EU. 2008]. Briefly, P. falciparum is cultured using 2% hematocrit washed RBCs, separated from freshly collected human blood, in RPMI media containing glutamine, sodium bicarbonate and antibiotics. Parasites are routinely synchronized using 5% sorbitol treatment. Anti-malarial screens are carried out in two stages: 1) a primary screen at a fixed concentration of 10 μM to find out % inhibition of growth; and 2) a dose assay for finding out the IC50 for hits identified from the primary screen. Assays are setup as follows. 200 μls of the diluted parasite culture (2% parasitemia and 2% hematocrit; at late ring stage), is added to each well in a 96 well plate pre-seeded with the compound of interest at the required concentration of 10 μM. The master stocks and dilutions of the compounds are prepared in cell culture grade DMSO. NOTE: DMSO only treatment control is done and the results are used for normalizing the data obtained from compound treatment. All compounds are plated in triplicates. Each 96 well plate also includes negative controls (compound untreated culture) and positive controls (standard anti-malarial treated culture). Standard anti-malarials used are chloroquine, artemisinine and atovaquone, each at 1 μM concentration. After plating, the culture is incubated in standard growth condition for 60 hours, after which the cultures are processed for testing the effect of compounds on parasite growth using SybrGreen staining and fluorescence measurements at […] emmission following excitation at 498 nm. Since only parasites have DNA (as RBCs are devoid of nucleus), the SybrGreen signal is a direct indictor of parasitemia in respective samples. Results are used to quantifying relative parasite growth (or conversely % inhibition of growth) in untreated, standard anti-malarial treated and test molecule treated P. falciparum cultures. […] Data from the preliminary screen (@ 10 μM only) along with data from the dose response experiment and IC50 values for the selected molecules are tabulated in Table-2.

[3] = primary screen at 10 μM, TgLuc+ tachyzoites in HFF cells, 2 days incubation
[4] = dose response, dilution series 10 μM to 1 nM, 3D7, read-out: IC50(P. falciparum)
[5] = primary screen at 10 μM, 3D7, 60 hours incubation
[6] = Toxoplasma gondii, 48 h; primary screen at 10 μM, TgLuc+ tachyzoites in HFF cells, 2 days incubation
[7] = Plasmodium falciparum, 3D7, dose response, dilution series 10 μM to 1 nM, 3D7, read-out: IC50(P. falciparum)
[8] = Plasmodium falciparum, primary screen at 10 μM, 3D7, 60 hours incubation
[9] = Plasmodium falciparum, 3D7, 60 h
[10] = Plasmodium falciparum, 3D7, read-out: IC50(P. falciparum, μM), dose response, dilution series 10 μM to 1 nM, 3D7

Row | Compound | IC50 [2, 4] | inhibition at 10 µM [1, 6] [%] | IC50 [2, 7] [µM] | inhibition at 10 µM [2, 8] [%] | also measured
1 | 1,1-dibenzyl-4,4-diphenyl-1λ4,4-azasilinan-2-ylium bromide [NDS 100953] | 1.69 µM | – | – | – | % inhibition (T. gondii) [1, 3]: 39%; % inhibition (P. falciparum) [2, 5]: 94.96%
2 | 1-benzyl-1-ethyl-4,4-diphenyl-1λ4,4-azasilinan-2-ylium iodide [NDS 100952] | 0.33 µM | – | – | – | IC50 ([1]; dose response, dilution series 10 μM to 1 nM; read-out: IC50 (T gondii)): 1240 nM; % inhibition (T. gondii) [1, 3]: 72.06%; % inhibition (P. falciparum) [2, 5]: 104.01%
3 | c1ccc(CN2CC[Si](c3ccccc3)(c3ccccc3)CC2)cc1 [NDS 100860] | 2.3 µM | 99.4 | 1.75 | 112 | IC50 ([1]; read-out: IC50 (T gondii); dose response, dilution series 10 μM to 1 nM): 5030 nM and 2090 nM
4 | C[N+]1(Cc2ccccc2)CC[Si](c2ccccc2)(c2ccccc2)CC1 [NDS 100861] | 2.39 µM | 36 | 1.64 | 115 | –
5 | CC(C)=CC[N+]1(CC=C(C)C)CC[Si](c2ccccc2)(c2ccccc2)CC1 [NDS 101015, 1,1-bis(3-methylbut-2-en-1-yl)-4,4-diphenyl-1,4-azasilinan-1-ium bromide] | – | 20 | – | – | inhibition at 10 µM [2, 9]: 103%; IC50 [2, 10]: 0.48 µM; IC50 ([2]; read-out: IC50(P. falciparum), dose response, dilution series 10 μM to 1 nM, 3D7): 0.29 µM
6 | c1ccc([Si]2(c3ccccc3)CC[N+]3(CCCCC3)CC2)cc1 [NDS 101017] | 2.07 µM and 4.98 µM | 0 | – | 87.1 | –
7 | C=CC[N+]1(C)CC[Si](c2ccccc2)(c2ccccc2)CC1 [NDS 101039, 1-allyl-1-methyl-4,4-diphenyl-1,4-azasilinan-1-ium bromide] | – | 17 | – | – | inhibition at 10 µM [2, 9]: 76.2%; IC50 [2, 10]: 7.11 µM
8 | C[N+]1(C)CC[Si](c2ccccc2)(c2ccccc2)CC1 [NDS 101044, 1,1-dimethyl-4,4-diphenyl-1,4-azasilinan-1-ium iodide] | – | 0 | 2.46 | 63.5 | –
